Source: patent US20240246977A1, “DEGRADATION OF BRUTON'S TYROSINE KINASE (BTK) BY CONJUGATION OF BTK INHIBITORS WITH E3 LIGASE LIGAND AND METHOD OF USE” (BeiGene Switzerland GmbH, priority 2021, published 2024)

What was measured:
HEK-293 cells = assay: HEK-293 cytotoxicity detection (CellTiter-Glo); type: cell-based; settings: Homo sapiens, 72 h, 72 h incubation, CellTiter-Glo luminescence, read-out: HEK293
In short: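 HEK-293 cells exposed 72 h to 8 compounds doses (4-fold dilutions, top stock 5 mM at 500×) in 0.2% DMSO. Viability by CellTiter-Glo luminescence; inhibition normalised to DMSO high control and low control, IC50 from four-parameter curve fit.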

BTK = BTK (Homo sapiens, UniProt Q06187); assay: BTK cell degradation in TMD-8 cells, HTRF assay; type: cell-based; design: endogenous in cells; host or cells: TMD-8 cells; settings: 6 h treatment, IC50 (DC50) of BTK degradation
BTK, sequence (Q06187 whole entry): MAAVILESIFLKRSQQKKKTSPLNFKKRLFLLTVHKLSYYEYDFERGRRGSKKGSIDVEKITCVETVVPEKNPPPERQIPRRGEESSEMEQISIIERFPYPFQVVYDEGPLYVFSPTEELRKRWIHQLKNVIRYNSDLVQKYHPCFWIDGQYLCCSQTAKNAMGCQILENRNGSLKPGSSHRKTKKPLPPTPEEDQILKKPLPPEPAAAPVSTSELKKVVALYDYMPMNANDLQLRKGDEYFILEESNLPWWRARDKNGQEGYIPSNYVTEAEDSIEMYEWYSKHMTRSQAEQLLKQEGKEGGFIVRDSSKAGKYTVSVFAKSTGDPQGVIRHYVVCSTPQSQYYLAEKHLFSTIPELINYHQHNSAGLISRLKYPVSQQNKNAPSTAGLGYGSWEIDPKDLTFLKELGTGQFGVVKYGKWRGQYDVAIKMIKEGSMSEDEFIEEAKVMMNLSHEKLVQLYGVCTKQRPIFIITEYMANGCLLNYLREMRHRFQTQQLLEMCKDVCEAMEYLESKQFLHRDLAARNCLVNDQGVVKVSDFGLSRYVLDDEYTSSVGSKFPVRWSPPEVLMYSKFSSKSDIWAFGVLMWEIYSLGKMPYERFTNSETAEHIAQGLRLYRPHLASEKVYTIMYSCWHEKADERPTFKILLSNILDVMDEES
In short: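 TMD-8 cells treated 6 h with 8-dose series (6-fold dilutions, 0.2% DMSO final), then lysed and BTK quantified by HTRF (337/665/620 nm) after overnight antibody incubation at room temperature. Degradation normalized to DMSO high and low controls; DC50 and Dmax from four-parameter fit.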

SMILES | IC50 (HEK-293 cells) [nM] | DC50 (BTK) [nM]
Cc1cc(C(F)(F)F)cc(NC(=O)c2ccc(-c3nn4c(c3C(N)=O)Nc3ccc(N5CCN(CC6CCN(c7ccc(N8CCC(=O)NC8=O)cc7)CC6)CC5)cc3CC4)c(F)c2C)n1 [Example B29, 7-(4-((1-(4-(2,4-dioxotetrahydropyrimidin-1(2H)-yl)phenyl)piperidin-4-yl)methyl)piperazin-1-yl)-2-(2-fluoro-3-methyl-4-((6-methyl-4-(trifluoromethyl)pyridin-2-yl)carbamoyl)phenyl)-9,10-dihydro-4H-benzo[d]pyrazolo[1,5-a][1,3]diazepine-3-carboxamide] | > 10000 | 2.44
Cc1c(C(=O)Nc2cscn2)ccc(-c2nn3c(c2C(N)=O)Nc2ccc(N4CCN(CC5CCN(c6cccc(CN7CCC(=O)NC7=O)c6)CC5)CC4)cc2CC3)c1F [Example B99, 7-(4-((1-(3-((2,4-dioxotetrahydropyrimidin-1(2H)-yl)methyl)phenyl)piperidin-4-yl)methyl)piperazin-1-yl)-2-(2-fluoro-3-methyl-4-(thiazol-4-ylcarbamoyl)phenyl)-9,10-dihydro-4H-benzo[d]pyrazolo[1,5-a][1,3]diazepine-3-carboxamide] | > 10000 | 2.72
COc1ccccc1C(=O)NCc1ccc(-c2nn3c(c2C(N)=O)Nc2ccc(N4CCN(CC5CCN(c6ccc(N7CCC(=O)NC7=O)cc6)CC5)CC4)cc2CC3)cc1 [Example C1, 7-(4-((1-(4-(2,4-dioxotetrahydropyrimidin-1(2H)-yl)phenyl)piperidin-4-yl)methyl)piperazin-1-yl)-2-(4-((2-methoxybenzamido)methyl)phenyl)-9,10-dihydro-4H-benzo[d]pyrazolo[1,5-a][1,3]diazepine-3-carboxamide] | > 10000 | 0.758
Cc1cccc(NC(=O)c2ccc(-c3nn4c(c3C(N)=O)Nc3ccc(N5CCN(C6CC(c7ccc(N[C@@H]8CCC(=O)NC8=O)cc7)C6)CC5)cc3CC4)c(F)c2C)n1 (stereo partly drawn) [Example B71, (R)-7-(4-(3-(4-((2,6-dioxopiperidin-3-yl)amino)phenyl)cyclobutyl)piperazin-1-yl)-2-(2-fluoro-3-methyl-4-((6-methylpyridin-2-yl)carbamoyl)phenyl)-9,10-dihydro-4H-benzo[d]pyrazolo[1,5-a][1,3]diazepine-3-carboxamide] | > 10000 | 7.45
COc1cnccc1C(=O)NCc1ccc(-c2nn3c(c2C(N)=O)Nc2ccc(N4CCN(CC5CCN(c6ccc(N7CCC(=O)NC7=O)cc6)CC5)CC4)cc2CC3)cc1C [Example C37, 7-(4-((1-(4-(2,4-dioxotetrahydropyrimidin-1(2H)-yl)phenyl)piperidin-4-yl)methyl)piperazin-1-yl)-2-(4-((3-methoxyisonicotinamide)methyl)-3-methylphenyl)-9,10-dihydro-4H-benzo[d]pyrazolo[1,5-a][1,3]diazepine-3-carboxamide] | > 10000 | 12.4
COc1ccc2ccccc2c1C(=O)N[C@H](C)c1ccc(-c2nn3c(c2C(N)=O)Nc2ccc(N4CCN(CC5CCN(c6ccc(N7CCC(=O)NC7=O)cc6)CC5)CC4)cc2CC3)cc1 [Example C13, (R)-7-(4-((1-(4-(2,4-dioxotetrahydropyrimidin-1(2H)-yl)phenyl)piperidin-4-yl)methyl)piperazin-1-yl)-2-(4-(1-(2-methoxy-1-naphthamido)ethyl)phenyl)-9,10-dihydro-4H-benzo[d]pyrazolo[1,5-a][1,3]diazepine-3-carboxamide] | > 10000 | 11.6
Cc1c(C(=O)Nc2cc(C)n(C)n2)ccc(-c2nn3c(c2C(N)=O)Nc2ccc(N4CCN(CC5CCN(c6ccc(N7CCC(=O)NC7=O)cc6)CC5)CC4)cc2CC3)c1F [Example B86, 2-(4-((1,5-dimethyl-1H-pyrazol-3-yl)carbamoyl)-2-fluoro-3-methylphenyl)-7-(4-((1-(4-(2,4-dioxotetrahydropyrimidin-1(2H)-yl)phenyl)piperidin-4-yl)methyl)piperazin-1-yl)-9,10-dihydro-4H-benzo[d]pyrazolo[1,5-a][1,3]diazepine-3-carboxamide] | > 10000 | 4.37
COc1ccccc1C(=O)NC(C)c1ccc(-c2nn3c(c2C(N)=O)Nc2ccc(N4CCN(CC5CCN(c6ccc(N7CCC(=O)NC7=O)cc6)CC5)CC4)cc2CC3)cc1 (stereo not drawn) [Example C5, 7-(4-((1-(4-(2,4-dioxotetrahydropyrimidin-1(2H)-yl)phenyl)piperidin-4-yl)methyl)piperazin-1-yl)-2-(4-(1-(2-methoxybenzamido)ethyl)phenyl)-9,10-dihydro-4H-benzo[d]pyrazolo[1,5-a][1,3]diazepine-3-carboxamide] | > 10000 | 3.82
COc1ccc(C(F)(F)F)cc1C(=O)NCc1ccc(-c2nn3c(c2C(N)=O)Nc2ccc(N4CCN(CC5CCN(c6ccc(N7CCC(=O)NC7=O)cc6)CC5)CC4)cc2CC3)cc1C [Example C11, 7-(4-((1-(4-(2,4-dioxotetrahydropyrimidin-1(2H)-yl)phenyl)piperidin-4-yl)methyl)piperazin-1-yl)-2-(4-((2-methoxy-5-(trifluoromethyl)benzamido)methyl)-3-methylphenyl)-9,10-dihydro-4H-benzo[d]pyrazolo[1,5-a][1,3]diazepine-3-carboxamide] | > 10000 | 3.36
Cc1cccc(N(CC(=O)OCc2ccccc2)C(=O)c2ccc(-c3nn4c(c3C(N)=O)Nc3ccc(N5CCN(CC6CCN(c7ccc(N8CCC(=O)N(CC(=O)OCc9ccccc9)C8=O)cc7)CC6)CC5)cc3CC4)c(F)c2C)n1 [Example B81, benzyl 2-(3-(4-(4-((4-(2-(4-((2-(benzyloxy)-2-oxoethyl)(6-methylpyridin-2-yl)carbamoyl)-2-fluoro-3-methylphenyl)-3-carbamoyl-9,10-dihydro-4H-benzo[d]pyrazolo[1,5-a][1,3]diazepin-7-yl)piperazin-1-yl)methyl)piperidin-1-yl)phenyl)-2,6-dioxotetrahydropyrimidin-1(2H)-yl)acetate] | 56.8 | > 2000
COc1ccncc1C(=O)N[C@H](C)c1ccc(-c2nn3c(c2C(N)=O)Nc2ccc(N4CCN(CC5CCN(c6ccc(N7CCC(=O)NC7=O)cc6)CC5)CC4)cc2CC3)cc1 [Example C18, (R)-7-(4-((1-(4-(2,4-dioxotetrahydropyrimidin-1(2H)-yl)phenyl)piperidin-4-yl)methyl)piperazin-1-yl)-2-(4-(1-(4-methoxynicotinamido)ethyl)phenyl)-9,10-dihydro-4H-benzo[d]pyrazolo[1,5-a][1,3]diazepine-3-carboxamide] | > 10000 | 12.5
COc1ccnc(NC(=O)c2ccc(-c3nn4c(c3C(N)=O)Nc3ccc(N5CCN(CC6CCN(c7ccc(N8CCC(=O)NC8=O)cc7)CC6)CC5)cc3CC4)c(F)c2C)c1 [Example B50, 7-(4-((1-(4-(2,4-dioxotetrahydropyrimidin-1(2H)-yl)phenyl)piperidin-4-yl)methyl)piperazin-1-yl)-2-(2-fluoro-4-((4-methoxypyridin-2-yl)carbamoyl)-3-methylphenyl)-9,10-dihydro-4H-benzo[d]pyrazolo[1,5-a][1,3]diazepine-3-carboxamide] | > 10000 | 2.16
